Where a SMILES comes first, the peptide text is derived from it. [ ]: non-standard residue; d: D form. Cya = N[C@@H](CS(=O)(=O)O)C(=O)O
System: Primary human immune cells (PBMC)
Assay: RNA-seq gene expression in primary human immune cells after risuteganib
Format: cell-based
Details: 100 μM, 8 hours
Protocol: Purpose: In this study, RNA-seq was used to unbiasedly identify the genes regulated by risuteganib exposure in primary human immune cells. Analysis of the specific subset of genes regulated by risuteganib enables identification of biological processes and pathways modulated by the oligopeptide Methods: Primary human immune cells (PBMC) were obtained from a single human donor. The cells were separated into two groups: vehicle or 100 μM risuteganib treatment for 8 hours. After exposure, cells were collected and their total RNA isolated for RNA-seq. The generated reads were then aligned to human reference genome/transcriptome and gene expression quantified for differential expression analysis and fold change calculation. The list of regulated genes was then used to identify biological processes and pathways that are regulated after Risuteganib exposure compared to vehicle control.

## C[C@@H](O)[C@H](NC(=O)[C@H](CS(=O)(=O)O)NC(=O)CNC(=O)[C@H](CCCNC(=N)N)NC(=O)CN)C(=O)N1CCC[C@H]1C(=O)O [Risuteganib, Glycyl-L-arginylglycyl-3-sulfo-L-alanyl-L-threonyl-L-proline] (H-GRG[Cya]TP-OH)
  ADAM8 Mean Expression Rate (Normalized as Fraction Control): 0.9708
  ADGRB1 Mean Expression Rate (Normalized as Fraction Control): 0.8444
  ADGRE2 Mean Expression Rate (Normalized as Fraction Control): 0.923
  ADGRG3 Mean Expression Rate (Normalized as Fraction Control): 0.8381
  AGER Mean Expression Rate (Normalized as Fraction Control): 0.9136
  AKIRIN2 Mean Expression Rate (Normalized as Fraction Control): 0.9697
  ALDH3B1 Mean Expression Rate (Normalized as Fraction Control): 0.8912
  ANPEP Mean Expression Rate (Normalized as Fraction Control): 0.9082
  ARRB2 Mean Expression Rate (Normalized as Fraction Control): 0.9014
  ARSA Mean Expression Rate (Normalized as Fraction Control): 0.9239
  ATP6V0A1 Mean Expression Rate (Normalized as Fraction Control): 0.9432
  BAG6 Mean Expression Rate (Normalized as Fraction Control): 0.9522
  BCL3 Mean Expression Rate (Normalized as Fraction Control): 0.8918
  BRI3 Mean Expression Rate (Normalized as Fraction Control): 0.9397
  CCL2 Mean Expression Rate (Normalized as Fraction Control): 0.9143
  CCL3L1 Mean Expression Rate (Normalized as Fraction Control): 0.8739
  CCL4L2 Mean Expression Rate (Normalized as Fraction Control): 0.9389
  CCL4 Mean Expression Rate (Normalized as Fraction Control): 0.9605
  CCL22 Mean Expression Rate (Normalized as Fraction Control): 0.9197
  CD14 Mean Expression Rate (Normalized as Fraction Control): 0.8899
  CD63 Mean Expression Rate (Normalized as Fraction Control): 0.9487
  CD300A Mean Expression Rate (Normalized as Fraction Control): 0.9137
  CDC37 Mean Expression Rate (Normalized as Fraction Control): 0.935
  CEBPB Mean Expression Rate (Normalized as Fraction Control): 0.8752
  CKAP4 Mean Expression Rate (Normalized as Fraction Control): 0.9133
  CLCF1 Mean Expression Rate (Normalized as Fraction Control): 0.8975
  CSF1 Mean Expression Rate (Normalized as Fraction Control): 0.8841
  CSF3 Mean Expression Rate (Normalized as Fraction Control): 0.8615
  CSTB Mean Expression Rate (Normalized as Fraction Control): 0.9649
  CTSA Mean Expression Rate (Normalized as Fraction Control): 0.941
  CTSD Mean Expression Rate (Normalized as Fraction Control): 0.9173
  CXCL1 Mean Expression Rate (Normalized as Fraction Control): 0.9216
  CXCL2 Mean Expression Rate (Normalized as Fraction Control): 0.8524
  CXCL16 Mean Expression Rate (Normalized as Fraction Control): 0.9326
  CYB5R3 Mean Expression Rate (Normalized as Fraction Control): 0.9564
  CYBA Mean Expression Rate (Normalized as Fraction Control): 0.8869
  CYP27B1 Mean Expression Rate (Normalized as Fraction Control): 0.8623
  DGAT1 Mean Expression Rate (Normalized as Fraction Control): 0.9308
  DNAJC5 Mean Expression Rate (Normalized as Fraction Control): 0.969
  DOK3 Mean Expression Rate (Normalized as Fraction Control): 0.8929
  DYSF Mean Expression Rate (Normalized as Fraction Control): 0.8587
  ERCC1 Mean Expression Rate (Normalized as Fraction Control): 0.8784
  FABP5 Mean Expression Rate (Normalized as Fraction Control): 0.8713
  FCER1G Mean Expression Rate (Normalized as Fraction Control): 0.9289
  FCER2 Mean Expression Rate (Normalized as Fraction Control): 0.7686
  FCGRT Mean Expression Rate (Normalized as Fraction Control): 0.8558
  FGR Mean Expression Rate (Normalized as Fraction Control): 0.9222
  FOS Mean Expression Rate (Normalized as Fraction Control): 0.822
  GAA Mean Expression Rate (Normalized as Fraction Control): 0.9121
  GALNS Mean Expression Rate (Normalized as Fraction Control): 0.9356
  GLA Mean Expression Rate (Normalized as Fraction Control): 0.9639
  GPR84 Mean Expression Rate (Normalized as Fraction Control): 0.9231
  GPX1 Mean Expression Rate (Normalized as Fraction Control): 0.9254
  GRN Mean Expression Rate (Normalized as Fraction Control): 0.9221
  HEXIM1 Mean Expression Rate (Normalized as Fraction Control): 0.9653
  HIST2H2BE Mean Expression Rate (Normalized as Fraction Control): 0.8527
  HLA-DPB1 Mean Expression Rate (Normalized as Fraction Control): 0.9295
  HLA-DQB1 Mean Expression Rate (Normalized as Fraction Control): 0.9554
  HLX Mean Expression Rate (Normalized as Fraction Control): 0.9084
  HRAS Mean Expression Rate (Normalized as Fraction Control): 0.9238
  IFI30 Mean Expression Rate (Normalized as Fraction Control): 0.8318
  IGHD Mean Expression Rate (Normalized as Fraction Control): 0.8731
  IGLC2 Mean Expression Rate (Normalized as Fraction Control): 0.8467
  IGLV2-23 Mean Expression Rate (Normalized as Fraction Control): 0.4503
  IL1RN Mean Expression Rate (Normalized as Fraction Control): 0.8469
  IL4R Mean Expression Rate (Normalized as Fraction Control): 0.9748
  IL6 Mean Expression Rate (Normalized as Fraction Control): 0.9281
  IRF5 Mean Expression Rate (Normalized as Fraction Control): 0.9293
  ITGAL Mean Expression Rate (Normalized as Fraction Control): 0.9842
  ITGAM Mean Expression Rate (Normalized as Fraction Control): 0.9473
  ITGAX Mean Expression Rate (Normalized as Fraction Control): 0.8865
  KCNAB2 Mean Expression Rate (Normalized as Fraction Control): 0.9588
  KCNN4 Mean Expression Rate (Normalized as Fraction Control): 0.9127
  LFNG Mean Expression Rate (Normalized as Fraction Control): 0.9734
  LIF Mean Expression Rate (Normalized as Fraction Control): 0.7939
  LILRB3 Mean Expression Rate (Normalized as Fraction Control): 0.9396
  LILRB4 Mean Expression Rate (Normalized as Fraction Control): 0.897
  LIMK1 Mean Expression Rate (Normalized as Fraction Control): 0.9285
  LRP1 Mean Expression Rate (Normalized as Fraction Control): 0.9405
  LTB4R Mean Expression Rate (Normalized as Fraction Control): 0.834
  LTBR Mean Expression Rate (Normalized as Fraction Control): 0.9644
  MAN2B1 Mean Expression Rate (Normalized as Fraction Control): 0.9706
  MAP2K7 Mean Expression Rate (Normalized as Fraction Control): 0.9421
  MCEMP1 Mean Expression Rate (Normalized as Fraction Control): 0.86
  MCOLN1 Mean Expression Rate (Normalized as Fraction Control): 0.9403
  MMP9 Mean Expression Rate (Normalized as Fraction Control): 0.9125
  MMP25 Mean Expression Rate (Normalized as Fraction Control): 0.8959
  MT2A Mean Expression Rate (Normalized as Fraction Control): 0.9216
  MUCL1 Mean Expression Rate (Normalized as Fraction Control): 0.6866
  MYO1G Mean Expression Rate (Normalized as Fraction Control): 0.9214
  NBEAL2 Mean Expression Rate (Normalized as Fraction Control): 0.9432
  NCF4 Mean Expression Rate (Normalized as Fraction Control): 0.9433
  NECTIN2 Mean Expression Rate (Normalized as Fraction Control): 0.9479
  NFAM1 Mean Expression Rate (Normalized as Fraction Control): 0.8948
  NFKB2 Mean Expression Rate (Normalized as Fraction Control): 0.9675
  NFKBID Mean Expression Rate (Normalized as Fraction Control): 0.9203
  NPLOC4 Mean Expression Rate (Normalized as Fraction Control): 0.9748
  NRROS Mean Expression Rate (Normalized as Fraction Control): 0.9202
  ORAI1 Mean Expression Rate (Normalized as Fraction Control): 0.9714
  OSCAR Mean Expression Rate (Normalized as Fraction Control): 0.772
  OSM Mean Expression Rate (Normalized as Fraction Control): 0.8306
  OTUB1 Mean Expression Rate (Normalized as Fraction Control): 0.9445
  PDXK Mean Expression Rate (Normalized as Fraction Control): 0.973
  PFKL Mean Expression Rate (Normalized as Fraction Control): 0.9804
  PI3 Mean Expression Rate (Normalized as Fraction Control): 0.9158
  PILRA Mean Expression Rate (Normalized as Fraction Control): 0.9457
  PLAUR Mean Expression Rate (Normalized as Fraction Control): 0.9104
  PLD2 Mean Expression Rate (Normalized as Fraction Control): 0.9215
  PRAM1 Mean Expression Rate (Normalized as Fraction Control): 0.8661
  PRKCD Mean Expression Rate (Normalized as Fraction Control): 0.9631
  PSTPIP1 Mean Expression Rate (Normalized as Fraction Control): 0.9409
  QSOX1 Mean Expression Rate (Normalized as Fraction Control): 0.9355
  RAB5C Mean Expression Rate (Normalized as Fraction Control): 0.9246
  RAC2 Mean Expression Rate (Normalized as Fraction Control): 0.9763
  RAPGEF1 Mean Expression Rate (Normalized as Fraction Control): 0.9459
  RARA Mean Expression Rate (Normalized as Fraction Control): 0.8926
  RELB Mean Expression Rate (Normalized as Fraction Control): 0.9647
  RHOG Mean Expression Rate (Normalized as Fraction Control): 0.9592
  RNF19B Mean Expression Rate (Normalized as Fraction Control): 0.9469
  S100A11 Mean Expression Rate (Normalized as Fraction Control): 0.9492
  SH2B2 Mean Expression Rate (Normalized as Fraction Control): 0.879
  SIRPA Mean Expression Rate (Normalized as Fraction Control): 0.9657
  SLC11A1 Mean Expression Rate (Normalized as Fraction Control): 0.8842
  SLC26A6 Mean Expression Rate (Normalized as Fraction Control): 0.9452
  SOCS1 Mean Expression Rate (Normalized as Fraction Control): 0.9289
  SP2 Mean Expression Rate (Normalized as Fraction Control): 0.9613
  SRC Mean Expression Rate (Normalized as Fraction Control): 0.9483
  STK10 Mean Expression Rate (Normalized as Fraction Control): 0.9606
  STX4 Mean Expression Rate (Normalized as Fraction Control): 0.949
  STXBP2 Mean Expression Rate (Normalized as Fraction Control): 0.8885
  SUPT6H Mean Expression Rate (Normalized as Fraction Control): 0.9568
  TCIRG1 Mean Expression Rate (Normalized as Fraction Control): 0.892
  TFE3 Mean Expression Rate (Normalized as Fraction Control): 0.9731
  TICAM1 Mean Expression Rate (Normalized as Fraction Control): 0.9382
  TNF Mean Expression Rate (Normalized as Fraction Control): 0.9281
  TNFRSF1B Mean Expression Rate (Normalized as Fraction Control): 0.9604
  TNFRSF4 Mean Expression Rate (Normalized as Fraction Control): 0.9427
  TNFRSF13B Mean Expression Rate (Normalized as Fraction Control): 0.8508
  TNFRSF14 Mean Expression Rate (Normalized as Fraction Control): 0.9239
  TNFSF9 Mean Expression Rate (Normalized as Fraction Control): 0.8416
  TOM1 Mean Expression Rate (Normalized as Fraction Control): 0.9211
  TRAF3IP2 Mean Expression Rate (Normalized as Fraction Control): 0.9472
  TREM1 Mean Expression Rate (Normalized as Fraction Control): 0.9084
  TRPM2 Mean Expression Rate (Normalized as Fraction Control): 0.9391
  TYK2 Mean Expression Rate (Normalized as Fraction Control): 0.9711
  TYROBP Mean Expression Rate (Normalized as Fraction Control): 0.9329
  UNC13D Mean Expression Rate (Normalized as Fraction Control): 0.9577
  ZC3H12A Mean Expression Rate (Normalized as Fraction Control): 0.9757
  ZP3 Mean Expression Rate (Normalized as Fraction Control): 0.8491
  ZYX Mean Expression Rate (Normalized as Fraction Control): 0.9139
Adjusted p-value=6.22E-3
  genes associated with TNF-a pro-inflammatory pathway (pathway analysis): down-regulated
Gene printed as NA
  NA Mean Expression Rate (Normalized as Fraction Control): 0.9077

From patent US20240382557A1, “INHIBITION OF TUMOR NECROSIS FACTOR, PRO-INFLAMMATORY CYTOKINES AND OTHER INFLAMMATORY RESPONSE MEDIATORS” (Allegro Pharmaceuticals, LLC, priority 2021, published 2024)
